Test [1] addresses T1, Gastrotropin (Homo sapiens, UniProt P51161).
T1 sequence (P51161 whole entry): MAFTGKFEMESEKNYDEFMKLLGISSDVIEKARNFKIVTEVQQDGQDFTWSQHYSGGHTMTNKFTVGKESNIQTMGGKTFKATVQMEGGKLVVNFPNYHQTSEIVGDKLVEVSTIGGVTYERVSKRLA
Kind of test: Binding affinity to recombinant human N-terminal His6 and Avi-tagged FABP6 expressed in Escherichia coli NEB cells by surface plasmon resonance method.

For test [2], the target named is T2, Fatty acid-binding protein, liver (Homo sapiens, UniProt P07148).
T2 sequence (P07148 whole entry): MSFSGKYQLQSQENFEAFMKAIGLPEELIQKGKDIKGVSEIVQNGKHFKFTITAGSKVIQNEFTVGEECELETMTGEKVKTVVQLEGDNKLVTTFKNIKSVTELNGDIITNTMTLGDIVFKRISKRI
In words: Binding affinity to recombinant human N-terminal His6 and Avi-tagged FABP1 expressed in Escherichia coli NEB cells by surface plasmon resonance method.

This is an account of results in ChEMBL document CHEMBL4431332, “Identification and Investigation of Novel Binding Fragments in the Fatty Acid Binding Protein 6 (FABP6)” (J Med Chem, 2016).

The structures appear in SMILES notation. A value given as a limit tells only on which side of the number the result lay.

Consider `Nc1nc2ccc(C(=O)c3ccccc3)cc2[nH]1`, for which the Kd in test [1] stood at 13 µM.

In the case of `Cc1cc2nc(N)[nH]c2cc1C`, in test [2], the Kd is more than 1000 µM.

Turning to `c1ccc(CNc2ccccn2)cc1`, the Kd in test [1] and in test [2] was 300 µM each time.

As to `Cc1nc(Cn2cnc3cc(C)c(C)cc32)cs1`, the Kd in test [1] was found to be 400 µM.

As to `CS(=O)(=O)N1CCCC(NCc2ccccc2)CC1` (centres undefined), the equilibrium dissociation constant (Kd) in test [1] was 300 µM; in test [2], more than 1000 µM.

For `COC(=O)c1cscc1-c1ccc(C(=O)N2CCOCC2)o1`, the Kd was 80 µM in test [1] and more than 1000 µM in test [2].

Turning to `O=C(c1ccco1)N1CCN(Cc2ccc3c(c2)OCO3)CC1`, the dissociation constant Kd in test [1] was 210 µM; in test [2], 400 µM.

In the case of `O=C1NCCOc2ccc(F)cc21`, the equilibrium dissociation constant (Kd) was 40 µM in test [1] and more than 1000 µM in test [2].

For the molecule `Cc1ccccc1CN1CCN(C(=O)c2cccnc2)CC1`, the dissociation constant Kd was 290 µM in test [1] and more than 1000 µM in test [2].

Regarding `CN1CCN(C(=O)c2ccc(=O)n(Cc3ccc(Cl)cc3)c2)CC1`, the results for the Kd in test [1] and in test [2] were 210 µM and more than 1000 µM, respectively.

As to `Nc1c2c(nc3ccccc13)CCCC2` [TACRINE], the figures for the Kd in test [1] and in test [2] were 200 µM and 900 µM, respectively.

A word on the Kd: it is the concentration at which binding is half-saturated.
